Measured values: the supplement of paper PMC10933113
Where a name gives a salt, the structure may show the parent alone. ± gives the uncertainty stated by the source.

Experiments:
[1] = tested on: THP-1; test: AC50 of IL-8 secretion induction; higher = less potent; details: exposure time: 18 h
[2] = tested on: KeratinoSens (HaCaT ARE-luciferase) cells; test: AC50 of Nrf2/ARE luciferase induction; higher = less potent; details: exposure time: 24 h
[3] = tested on: KeratinoSens (HaCaT ARE-luciferase) cells; test: cytotoxicity AC50 (CellTiter-Fluor viability); higher = less cytotoxic; details: exposure time: 24 h
[4] = tested on: THP-1; test: efficacy of IL-8 induction relative to DMSO (% activity); higher = stronger induction; details: exposure time: 18 h
[5] = tested on: lysine peptide Ac-RFAAKAA-COOH; test: efficacy of lysine peptide change (negative = depletion) (% activity); higher = less depletion; details: incubation time: 24 h
[6] = tested on: cysteine peptide Ac-RFAACAA-COOH; test: efficacy of cysteine peptide change (negative = depletion) (% activity); higher = less depletion; details: incubation time: 24 h
[7] = tested on: KeratinoSens (HaCaT ARE-luciferase) cells; test: efficacy of ARE luciferase induction relative to DMSO (% activity over DMSO); higher = stronger induction; details: exposure time: 24 h
[8] = tested on: cysteine peptide Ac-RFAACAA-COOH; test: AC50 of cysteine peptide concentration-response (direction given by sign of efficacy); higher = less potent; details: incubation time: 24 h

| efficacy of lysine peptide change [5] | efficacy of cysteine peptide change [6] | AC50 [8] [µM] | Compound | AC50 of IL-8 secretion induction [1] [µM] | AC50 of Nrf2/ARE luciferase induction [2] [µM] | cytotoxicity AC50 [3] [µM] | efficacy of IL-8 induction [4] | efficacy of ARE luciferase induction [7] |
| --- | --- | --- | --- | --- | --- | --- | --- | --- |
| 16.7 ± 23 | -3.5 ± 6.1 |  | O=C(N/N=C/c1ccccc1O)c1ccncc1 [Salinazid] | 20 |  | 4.76 ± 1.3 | 45.6 ± 14 | -34.3 ± 30 |
| 115 ± 4.9 | 88.8 ± 300 | 11.9 ± 20 | Nc1ccc2cc3ccc(N)cc3nc2c1 [Proflavin hemisulfate#] | 35.5 | 7.94 |  | 68 ± 3.1 | 390 ± 270 |
| -5.13 ± 15 | -101 ± 4.2 | 4.16 ± 0.53 | CC(O)C#CC(C)O (centres undefined) [Hex-3-yne-2,5-diol] | 41.4 |  | 32.9 ± 2.2 | 62.2 ± 17 | -35.2 ± 7.1 |
| -8.28 ± 7.3 | -68.8 ± 8.1 | 1.52 ± 0.89 | Oc1c(I)cc(Cl)c2cccnc12 [Clioquinol] | 21.6 | 6.33 | 10.4 ± 1.3 | 125 ± 14 | 87.3 ± 32 |
| -53.1 ± 24 | 5.83 ± 10 |  | S=C(NC1CCCCC1)NC1CCCCC1 [N,N'-Dicyclohexylthiourea] | 85.9 |  | 53.1 ± 25 | 84.8 ± 36 | 82 ± 95 |
| 56 ± 8.1 | -4.47 ± 11 |  | CCCCc1ccc2[nH]c(NC(=O)OC)nc2c1 [Parbendazole*] | 38.4 | 21.1 | 5.79 ± 1.6 | 77.1 ± 5.2 | 66.8 ± 26 |
| -94.5 ± 3.8 | -98.9 ± 3.5 | 0.88 ± 0.21 | CCCCCCCCn1sc(Cl)c(Cl)c1=O [4,5-Dichloro-2-octyl-3(2H)-isothiazolone] | 11.7 |  | 12.1 ± 0.79 | 50.1 ± 4.7 | -41.3 ± 5.3 |
| 121 ± 16 | -13.7 ± 2.3 |  | Cc1cc(C2(c3cc(C)c(O)cc3C)OS(=O)(=O)c3ccccc32)c(C)cc1O [p-Xylenol blue] | 52.2 |  | 28.6 ± 6 | 45.6 ± 8.1 | 0 |
| -8.95 ± 16 | -11.2 ± 4.1 |  | Cc1ccc(O)c2ncccc12 [Tiliquinol] | 4.38 |  | 2.47 ± 0.62 | 117 ± 19 | -35.2 ± 3.8 |
| 0 | -49.3 ± 1.9 | 18.7 ± 3.4 | O=[N+]([O-])c1cc(N(CCO)CCO)ccc1NCCO [HC Blue 2] | 66.8 |  |  | 38.4 ± 82 | 0 |
| -30.8 ± 9.1 | -112 ± 5.2 | 34.8 ± 13 | CC(C)(C)c1cc(O)ccc1O [tert-Butylhydroquinone] | 39.8 | 33 |  | 114 ± 90 | 293 ± 55 |
| 9.43 ± 16 | 5.74 ± 9.9 |  | CC1COc2ccccc2N1C(=O)C(Cl)Cl (centres undefined) [Benoxacor] | 79.8 |  | 46.5 ± 3.1 | 136 ± 40 | 33.2 ± 15 |
| 33.8 ± 41 | 0 |  | COC(=O)Nc1nc2cc(Sc3ccccc3)ccc2[nH]1 [Fenbendazole] | 39.8 |  | 3.46 ± 1.9 | 213 ± 14 | 46 ± 53 |

Further lines, the molecule ahead of its results:

| Compound | efficacy of lysine peptide change [5] | efficacy of cysteine peptide change [6] | AC50 [8] [µM] | AC50 of IL-8 secretion induction [1] [µM] | AC50 of Nrf2/ARE luciferase induction [2] [µM] | cytotoxicity AC50 [3] [µM] | efficacy of IL-8 induction [4] | efficacy of ARE luciferase induction [7] |
| --- | --- | --- | --- | --- | --- | --- | --- | --- |
| Cn1sccc1=O [2-Methyl-4-isothiazolin-3-one hydrochloride] | -0.97 ± 8.8 | -98.5 ± 3.1 | 2.42 ± 0.16 | 35.9 | 13.7 | 25.2 ± 2.9 | 50.4 ± 5.3 | 118 ± 32 |
| Clc1nc(C(Cl)(Cl)Cl)c(Cl)c(Cl)c1Cl [2,3,4,5-Tetrachloro-6-(trichloromethyl)pyridine] | 1.85 ± 3.2 | -2.03 ± 3.5 |  | 47.3 |  | 37.1 ± 4.7 | 33.7 ± 5.8 | 43.7 ± 28 |
| CC(C)OC(=S)S [Proxan-sodium] | 10.8 ± 20 | -94.2 ± 20 | 73.6 ± 37 | 35.9 |  | 37.3 ± 6.7 | 59.9 ± 7.8 | 59.5 ± 100 |
| S=C=NCc1ccccc1 [BENZYL ISOTHIOCYANATE] | 19.8 ± 9.3 | -57.9 ± 6.4 | 34.2 ± 2.2 | 11.4 | 24.8 |  | 40.8 ± 25 | 278 ± 170 |
| CCN(CC)c1ccc(C(=O)c2ccccc2C(=O)O)c(O)c1 [2-[4-(Diethylamino)-2-hydroxybenzoyl]benzoic acid] | -5.24 ± 15 | 1.78 ± 13 |  | 38.4 |  | 30.5 ± 2 | 75.5 ± 11 | 56.6 ± 46 |
| CN(C)c1ccc(N(C)C)cc1 [*N,N,N',N'-Tetramethyl-p-phenylenediamine] | -28.7 ± 13 | -93.1 ± 3.4 | 3.26 ± 0.91 | 76.5 | 20.9 | 57 ± 12 | 130 ± 7.7 | 98.6 ± 34 |
| c1csc(SSc2cccs2)c1 [2-Thienyl disulfide] | -11.6 ± 10 | -94.7 ± 2.8 | 1.04 ± 0.07 | 82.7 | 33.5 | 41.4 ± 2.8 | 81.3 ± 8.7 | 126 ± 80 |
| c1coc(-c2nc3ccccc3[nH]2)c1 [Fuberidazole] | -20.8 ± 15 | -100 ± 9.1 | 12.3 ± 4.7 | 48.3 | 32 | 38.7 ± 6.6 | 78.3 ± 0.93 | 96.2 ± 26 |
| c1cc(N(CC2CO2)CC2CO2)ccc1Cc1ccc(N(CC2CO2)CC2CO2)cc1 (centres undefined) [4,4'-Methylenebis(N,N-diglycidylaniline)] |  |  |  | 37.1 | 15.8 | 35.5 | 103 ± 16 | 57 ± 38 |
| c1cc(N(CC2CO2)CC2CO2)ccc1OCC1CO1 (centres undefined) [4-(Diglycidylamino)phenyl glycidyl ether] | 41.8 ± 1.5 | -36.5 ± 12 | 20.3 ± 16 | 76.9 | 32.9 | 63.9 ± 12 | 62.3 ± 18 | 103 ± 58 |
| O=c1cc(-c2ccccc2)oc2ccc3ccccc3c12 [5,6-Benzoflavone] |  |  |  | 79.4 |  |  | 98 ± 14 | -34.9 ± 4.2 |
